5 compounds from US20240415819A1, “MACROCYCLIC COMPOUNDS AS PROTEASOME SUBUNIT BETA TYPE-5 INHIBITORS” (Lead Discovery Center GmbH, priority 2021, published 2024) can be followed below.

Assay [1] concerns A549 (human lung carcinoma cell line). Description: Glo assay of A549 cells (Table 3; ProteasomeGlo plating scheme). In kind it is cell-based. The settings on record: Homo sapiens. In outline:
(§1)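 Luminescent read-out of cellular chymotrypsin-like proteasome activity: cells exposed to compound 105 min at 37° C., 5% CO2, then given Suc-LLVY-Glo reagent, shaken 2-5 min and kept dark 10-15 min before reading. Values are IC50 [nM].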

Another assay has as its system Karpas cells. Description: Glo assay of Karpas cells (Table 3; ProteasomeGlo plating scheme). In kind it is cell-based. The settings on record: read-out: Pglo Karpas. In outline:
as §1

The test system of assay [2] is B-cells isolated from PBMC's. Description: Chymotrypsin-like ProteasomeGlo assay in B-cells isolated from PBMCs. Format: cell-based, human. The note with it: Homo sapiens; B-cells isolated from PBMC's; read-out: Pglo B-Cell. In outline: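 Human B-cells were negatively isolated from buffy-coat PBMCs by density gradient, RBC lysis and Miltenyi magnetic separation. Cells were plated and compounds added by acoustic transfer after 1:100 dilution, with DMSO controls and medium-only wells. Chymotrypsin-like proteasome activity was read by luminescent ProteasomeGlo to derive IC50.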

[3] abbreviates: A549 cells, read-out: PGLo A549.

The structures appear in SMILES notation. Where two headings read alike, the source gives them in different places.

As for `Cc1ccc2cc1CNC(=O)[C@H](CCc1ccccc1)NC(=O)[C@@H](NC(=O)OCc1ccccc1)CC(=O)N1CCC[C@H](CCO2)C1` [Compound 292, benzyl ((13R,9S,12S)-5^4-methyl-8,11,14-trioxo-9-phenethyl-4-oxa-7,10-diaza-1(3,1)-piperidina-5(1,3)-benzenacyclotetradecaphane-12-yl)carbamate], in assay [1] (setting [3]), the IC50 is < 100 nM.

Consider `Cc1ccc2cc1CNC(=O)[C@H](CCc1ccccc1)NC(=O)[C@@H](NC(=O)OCC1(C)COC1)CC(=O)N1CCCC(CCO2)C1` (stereo partly drawn) [Compound 293, (3-methyloxetan-3-yl)methyl ((9S,12S)-5^4-methyl-8,11,14-trioxo-9-phenethyl-4-oxa-7,10-diaza-1(3,1)-piperidina-5(1,3)-benzenacyclotetradecaphane-12-yl)carbamate], for which, in assay [1] (A549, read-out: PGLo A549 [nM]), the IC50 was < 100 nM.

Regarding `CC(=O)N[C@H]1CC(=O)N2CCCC(CCOc3ccc(C)c(c3)CNC(=O)C(c3cnn(Cc4ccccc4)c3)NC1=O)C2` (stereo partly drawn) [Compound 565, N-((12S)-9-(1-benzyl-1H-pyrazol-4-yl)-5^4-methyl-8,11,14-trioxo-4-oxa-7,10-diaza-1(3,1)-piperidina-5(1,3)-benzenacyclotetradecaphane-12-yl)acetamide], the IC50 in assay [1] (setting [3]) is < 100 nM.

`Cc1ccc2cc1CNC(=O)[C@H](CCc1ccccc1)NC(=O)[C@H](NC(=O)OCc1ccccc1)CC(=O)N1CCC[C@H](CCO2)C1` [Compound 291, benzyl ((13R,9S,12R)-5^4-methyl-8,11,14-trioxo-9-phenethyl-4-oxa-7,10-diaza-1(3,1)-piperidina-5(1,3)-benzenacyclotetradecaphane-12-yl)carbamate]: the IC50 in assay [1] (setting [3]) is 1000 to 5000 nM.

Consider `CCC(C(=O)N[C@H]1CC(=O)N2CCCC(CCOc3ccc(C)c(c3)CNC(=O)[C@H](CCc3ccccc3)NC1=O)C2)c1ccc(OC)c(OC)c1` (stereo partly drawn) [Compound 64, 2-(3,4-dimethoxyphenyl)-N-((9S,12S)-5^4-methyl-8,11,14-trioxo-9-phenethyl-4-oxa-7,10-diaza-1(3,1)-piperidina-5(1,3)-benzenacyclotetradecaphane-12-yl)butanamide], for which the IC50 (in assay [1] (setting [3]); in the assay with Karpas cells; in assay [2]) was < 100 nM each time.
